The text below walks through data of patent US20260250320A1, “LIPIDATED PEPTIDE INHIBITORS OF INTERLEUKIN-23 RECEPTOR” (Janssen Pharmaceutica NV, priority 2023, published 2026).

The target of one assay is T1, IL-23R (Homo sapiens, UniProt Q5VWK5).
T1 construct: HEK293 cells containing IL-23R, IL-12Rβ1 and a firefly luciferase reporter gene driven by a STAT-inducible promoter (Promega); host or cells: HEK293
T1 sequence (Q5VWK5 24-629): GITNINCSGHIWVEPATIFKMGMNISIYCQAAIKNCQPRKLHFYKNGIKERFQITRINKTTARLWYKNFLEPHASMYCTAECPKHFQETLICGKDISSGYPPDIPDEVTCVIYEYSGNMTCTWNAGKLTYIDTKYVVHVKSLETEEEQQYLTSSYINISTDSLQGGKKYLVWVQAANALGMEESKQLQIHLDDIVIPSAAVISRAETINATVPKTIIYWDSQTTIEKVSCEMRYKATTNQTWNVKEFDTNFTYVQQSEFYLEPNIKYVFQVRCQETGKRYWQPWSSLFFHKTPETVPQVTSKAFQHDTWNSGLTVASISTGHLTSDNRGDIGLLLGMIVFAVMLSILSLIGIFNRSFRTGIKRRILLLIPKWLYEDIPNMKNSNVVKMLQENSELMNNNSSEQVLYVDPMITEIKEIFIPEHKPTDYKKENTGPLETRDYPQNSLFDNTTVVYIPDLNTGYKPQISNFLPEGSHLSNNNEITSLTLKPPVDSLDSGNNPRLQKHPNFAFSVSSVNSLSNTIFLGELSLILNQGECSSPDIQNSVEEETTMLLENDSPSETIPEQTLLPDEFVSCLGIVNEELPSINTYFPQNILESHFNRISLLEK
The assay is described as follows: IL23R Reporter Assay. In kind it is cell-based. To be noted: HEK293 cells containing IL-23R, IL-12Rβ1 and STAT-inducible firefly luciferase reporter; 10 ng/mL IL-23 (EC90); 5 h. The method in brief: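 HEK293 cells carrying IL-23R, IL-12Rβ1 and a STAT-driven firefly luciferase reporter (4000 cells/well) received compound, then 10 ng/mL IL-23 solution (EC90), and were incubated for 5 h at 37° C. BioGlo luminescence was normalised to IL-23 alone (0%) and 30 μM control inhibitor (100%). IC50 came from a 4-parameter Hill fit.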
Background: In a reporter assay the amount or activity of a reporter protein is the signal.

Assay [1] has as its system IL-23-stimulated phosphorylated STAT3 in peripheral blood mononuclear cells (PBMCs). The assay is described as follows: PBMC pSTAT3 Assay. In kind it is cell-based. As to conditions: PBMCs from healthy donors; 30 min preincubation with peptide; IL-23 5 ng/mL for 30 min; phospho-STAT3 by MSD. The method in brief:
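Healthy-donor PBMCs expanded 4 days on anti-CD3 with 100 ng/mL IL-1β, starved ~4 h in RPMI-0.1% BSA, preincubated 30 min with peptide, then stimulated 30 min at 37 °C with 5 ng/mL IL-23. Lysate pSTAT3 measured by MSD phospho-STAT panel; IC50 derived.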

*1 amine or outer side, *2 acyl side, *3 side chain or, on linkers, in order; H or OH if unused. Where a SMILES comes first, the peptide text is derived from it. Bridges are numbered along the chain shown (N, C = ends). Side-chain parts run from the residue outwards. [ ]: non-standard residue; d: D form. The star is where a group is joined. X12 = O=C(O)CCCCCCCCCCCCCCCCC(=O)C[C@@H](CCC(=O)*)C(=O)O; Me3N+(CH2)2O(CH2)2O(CH2)2CO = C[N+](C)(C)CCOCCOCCC(=O)*; PEG12 = NCCOCCOCCOCCOCCOCCOCCOCCOCCOCCOCCOCCOCCC(=O)O; Trp(7-Me) = Cc1cccc2c(C[C@H](N)C(=O)O)c[nH]c12; X37 = Cc1cccc2c1CC=C2C[C@H](N[*:1])C(=O)[*:2]; C20 diacid = O=C(O)CCCCCCCCCCCCCCCCCCC(=O)*; C18 diacid = O=C(O)CCCCCCCCCCCCCCCCC(=O)*; CH2CH2OCH2CH2NMe3+ = C[N+](C)(C)CCOCC*; γGlu = O=C(O)[C@H](CCC(=O)[*:2])N[*:1]; 2Nal = N[C@@H](Cc1ccc2ccccc2c1)C(=O)O; 3Pal = N[C@@H](Cc1cccnc1)C(=O)O; Lys(Me) = CNCCCC[C@H](N)C(=O)O; Pen = CC(C)(S)[C@H](N)C(=O)O; Thp = NC1(C(=O)O)CCOCC1; X1 = C[N+](C)(C)CCCCC*; AEEA = NCCOCCOCC(=O)O; Sar = CNCC(=O)O

Usually IC50 stands for the concentration at which inhibition is half-maximal. A lower IC50 goes with inhibition by little substance.

Take `CC(=O)NCCCC[C@@H]1NC(=O)[C@H](Cc2c[nH]c3c(C)cccc23)NC(=O)[C@H]([C@@H](C)O)NC(=O)[C@H](CC(N)=O)NC(=O)[C@@H](NC(=O)[C@@H](CCCNC(=N)N)NC(C)=O)C(C)(C)SSC(C)(C)[C@@H](C(=O)N[C@@H](Cc2ccc(OCCCCC[N+](C)(C)C)cc2)C(=O)N[C@@H](Cc2ccc3ccccc3c2)C(=O)NC2(C(=O)N[C@@H](CCCCNC(=O)CCOCCOCCOCCOCCOCCOCCOCCOCCOCCOCCOCCOCCNC(=O)CC[C@H](NC(=O)CCCCCCCCCCCCCCCCC(=O)O)C(=O)O)C(=O)N[C@@H](CC(N)=O)C(=O)N[C@@H](Cc3cccnc3)C(=O)N(C)CC(=O)N(C)C)CCOCC2)NC1=O` [compound 123, cPEG3aCO-Pen(3)-N(N(Me)2)-T-7MeW-K(NMeAc)-Pen(3)-TMAPF-2Nal-THP-K(PEG12gEC18OH)-N-3Pya-Sar-CON(Me)2] (Ac-[dR][Pen]NT[Trp(7-Me)]K(Ac)[Pen]Y(X1)[2Nal][Thp]K([PEG12-γGlu-C18 diacid])N[3Pal][Sar]-NMe2; disulfide 2-7): the half-maximal inhibitory concentration (IC50) against IL-23R was less than 50 nM; in assay [1] it was less than 0.5 nM.

As for `CC(=O)N(C)CCCC[C@H](NC(=O)C1(NC(=O)[C@H](Cc2ccc3ccccc3c2)NC(=O)[C@H](Cc2ccc(OCCCCC[N+](C)(C)C)cc2)NC(=O)[C@H]2NC(=O)[C@H](CCCCNC(=O)CCOCCOCCOCCOCCOCCOCCOCCOCCOCCOCCOCCOCCNC(=O)CC[C@H](NC(=O)CCCCCCCCCCCCCCCCC(=O)O)C(=O)O)NC(=O)[C@H](CC3=CCc4c(C)cccc43)NC(=O)[C@H]([C@@H](C)O)NC(=O)[C@H](CC(=O)N(C)C)NC(=O)[C@@H](NC(=O)CCOCCOCC[N+](C)(C)C)C(C)(C)SSC2(C)C)CCOCC1)C(=O)N[C@@H](CC(N)=O)C(=O)N[C@@H](Cc1cccnc1)C(=O)N(C)CC(=O)N(C)C` [compound 124, cPEG3aCO-Pen(3)-N(N(Me)2)-T-7MeW-K(PEG12gEC18OH)-Pen(3)-TMAPF-2Nal-THP-K(NMeAc)-N-3Pya-Sar-CON(Me)2] ({Me3N+(CH2)2O(CH2)2O(CH2)2CO}-[Pen]D(NMe2)T[X37]K([PEG12-γGlu-C18 diacid])[Pen]Y(X1)[2Nal][Thp][Lys(Me)](Ac)N[3Pal][Sar]-NMe2; disulfide 1-6), the figures for the half-inhibitory concentration (IC50) (at IL-23R; in assay [1]) were less than 50 nM and less than 0.5 nM, respectively.

Consider `CC(=O)N(C)CCCC[C@@H]1NC(=O)[C@H](Cc2c[nH]c3c(C)cccc23)NC(=O)[C@H]([C@@H](C)O)NC(=O)[C@H](CCCCNC(=O)CCOCCOCCOCCOCCOCCOCCOCCOCCOCCOCCOCCOCCNC(=O)CC[C@H](CC(=O)CCCCCCCCCCCCCCCCC(=O)O)C(=O)O)NC(=O)[C@@H](NC(=O)CCOCCOCC[N+](C)(C)C)C(C)(C)SSC(C)(C)[C@@H](C(=O)N[C@@H](Cc2ccc(OCCCCC[N+](C)(C)C)cc2)C(=O)N[C@@H](Cc2ccc3ccccc3c2)C(=O)NC2(C(=O)N[C@@H](CCCCN(C)C(C)=O)C(=O)N[C@@H](CC(N)=O)C(=O)N[C@@H](Cc3cccnc3)C(=O)N(C)CC(=O)N(C)C)CCOCC2)NC1=O` [compound 125, cPEG3aCO-Pen(3)-K(PEG12gEC18OH)-T-7MeW-K(NMeAc)-Pen(3)-TMAPF-2Nal-THP-K(NMeAc)-N-3Pya-Sar-CON(Me)2] ({Me3N+(CH2)2O(CH2)2O(CH2)2CO}-[Pen]K([PEG12-X12])T[Trp(7-Me)][Lys(Me)](Ac)[Pen]Y(X1)[2Nal][Thp][Lys(Me)](Ac)N[3Pal][Sar]-NMe2; disulfide 1-6), for which the IC50 was less than 50 nM against IL-23R and 0.5 to 5 nM in assay [1].

For `CC(=O)NCCCC[C@@H]1NC(=O)[C@H](Cc2c[nH]c3c(C)cccc23)NC(=O)[C@H]([C@@H](C)O)NC(=O)[C@H](CC(N)=O)NC(=O)[C@@H](NC(=O)CCOCCOCC[N+](C)(C)C)C(C)(C)SSC(C)(C)[C@@H](C(=O)N[C@@H](Cc2ccc(OCCCCC[N+](C)(C)C)cc2)C(=O)N[C@@H](Cc2ccc3ccccc3c2)C(=O)NC2(C(=O)N[C@@H](CCCCNC(=O)COCCOCCNC(=O)COCCOCCNC(=O)CC[C@H](NC(=O)CCCCCCCCCCCCCCCCCCC(=O)O)C(=O)O)C(=O)N[C@@H](N)C(=O)N[C@@H](Cc3ccccn3)C(=O)N(C)CC(N)=O)CCOCC2)NC1=O` [compound 126, cPEG3aCO-Pen(3)-N(N(Me)2)-T-7MeW-K(NMeAc)-Pen(3)-TMAPF-2Nal-THP-K(PEG2PEG2gEC20OH)-N-3Pya-Sar-CON(Me)2], the half-inhibitory concentration (IC50) at IL-23R was less than 50 nM; in assay [1], less than 0.5 nM.

Turning to `C=C(N[C@@H](CC(N)=O)C(=O)N[C@@H](CC)C(C)N(C)CC(=O)N(C)C)[C@H](CCCCN(C)C(C)=O)NC(=O)C1(NC(=O)[C@H](Cc2ccc3ccccc3c2)NC(=O)[C@H](Cc2ccc(OCCCCC[N+](C)(C)C)cc2)NCC2NC(=O)[C@H](CCCCNC(=O)COCCOCCNC(=O)COCCOCCNC(=O)CC[C@H](NC(=O)CCCCCCCCCCCCCCCCCCC(=O)O)C(=O)O)NC(=O)[C@H](CC3=CCc4c(C)cccc43)NC(=O)[C@H]([C@@H](C)O)NC(=O)[C@H](CC(=O)N(C)C)NC(=O)[C@@H](NC(=O)CCOCCOCC[N+](C)(C)C)C(C)(C)SSC2(C)C)CCCCC1` (stereo partly drawn) [compound 127, cPEG3aCO-Pen(3)-N(N(Me)2)-T-7MeW-K(PEG2PEG2gEC20OH)-Pen(3)-TMAPF-2Nal-THP-K(NMeAc)-N-3Pya-Sar-CON(Me)2], the half-inhibitory concentration (IC50) was in the range of 50 to 500 nM against IL-23R and 0.5 to 5 nM in assay [1].

Take `CC(=O)N(C)CCCC[C@@H]1NC(=O)[C@H](Cc2c[nH]c3c(C)cccc23)NC(=O)[C@H]([C@@H](C)O)NC(=O)[C@H](CCCCNC(=O)COCCOCCNC(=O)COCCOCCNC(=O)CC[C@H](NC(=O)CCCCCCCCCCCCCCCCCCC(=O)O)C(=O)O)NC(=O)[C@@H](NC(=O)CCOCCOCC[N+](C)(C)C)C(C)(C)SSC(C)(C)[C@@H](C(=O)N[C@@H](Cc2ccc(OCCCCC[N+](C)(C)C)cc2)C(=O)N[C@@H](Cc2ccc3ccccc3c2)C(=O)NC2(C(=O)N[C@@H](CCCCN(C)C(C)=O)C(=O)N[C@@H](CC(N)=O)C(=O)N[C@@H](Cc3cccnc3)C(=O)N(C)CC(=O)N(C)C)CCOCC2)NC1=O` [compound 128, cPEG3aCO-Pen(3)-K(PEG2PEG2gEC20OH)-T-7MeW-K(NMeAc)-Pen(3)-TMAPF-2Nal-THP-K(NMeAc)-N-3Pya-Sar-CON(Me)2] ({Me3N+(CH2)2O(CH2)2O(CH2)2CO}-[Pen]K([AEEA-AEEA-γGlu-C20 diacid])T[Trp(7-Me)][Lys(Me)](Ac)[Pen]Y(X1)[2Nal][Thp][Lys(Me)](Ac)N[3Pal][Sar]-NMe2; disulfide 1-6): the half-inhibitory concentration (IC50) on IL-23R fell in the range of 50 to 500 nM; in assay [1] it was 0.5 to 5 nM.

As to `CC(=O)N(C)CCCC[C@@H]1NC(=O)[C@H](Cc2c[nH]c3c(C)cccc23)NC(=O)[C@H]([C@@H](C)O)NC(=O)[C@H](CC(=O)N(C)C)NC(=O)[C@@H](NC(=O)[C@@H](CCCCNC(=O)COCCOCCNC(=O)COCCOCCNC(=O)CC[C@H](NC(=O)CCCCCCCCCCCCCCCCCCC(=O)O)C(=O)O)NC(=O)CCOCCOCC[N+](C)(C)C)C(C)(C)SSC(C)(C)[C@@H](C(=O)N[C@@H](Cc2ccc(OCCOCC[N+](C)(C)C)cc2)C(=O)N[C@@H](Cc2ccc3ccccc3c2)C(=O)NC2(C(=O)N[C@@H](CCCCN(C)C(C)=O)C(=O)N[C@@H](CC(N)=O)C(=O)N[C@@H](Cc3cccnc3)C(=O)N(C)CC(=O)N(C)C)CCOCC2)NC1=O` [compound 129, cPEG3aCO-K(PEG2PEG2gEC20OH)-Pen(3)-N(N(Me)2)-T-7MeW-K(NMeAc)-Pen(3)-TMAPF-2Nal-THP-K(NMeAc)-N-3Pya-Sar-CON(Me)2] ({Me3N+(CH2)2O(CH2)2O(CH2)2CO}-[dK]([AEEA-AEEA-γGlu-C20 diacid])[Pen]D(NMe2)T[Trp(7-Me)][Lys(Me)](Ac)[Pen]Y(CH2CH2OCH2CH2NMe3+)[2Nal][Thp][Lys(Me)](Ac)N[3Pal][Sar]-NMe2; disulfide 2-7), the results for the IC50 (at IL-23R; in assay [1]) were less than 50 nM and less than 0.5 nM, respectively.
